Reference: publication PMC3983375 (Journal of Medicinal Chemistry, 2014)

Tests used:
DEN1 = DEN1 (Homo sapiens, UniProt Q96LD8); assay: biochemical
UCHL1 = UCHL1 (Homo sapiens, UniProt P09936); assay: biochemical
caspase 3 = caspase 3 (Homo sapiens, UniProt P42574); assay: biochemical
cathepsin K = cathepsin K (Homo sapiens, UniProt P43235); assay: biochemical
[1] = mouse
USP2 = USP2 (Homo sapiens, UniProt O75604); assay: biochemical
USP7 = USP7 (Homo sapiens, UniProt Q93009); assay: biochemical
[2] = test system: SARS-CoV infected Vero E6 cells; type: cell-based
USP20 = USP20 (Homo sapiens, UniProt Q9Y2K6); assay: biochemical
[3] = test system: SARS-CoV infected Vero E6 cells; conditions: read-out: EC50 (SARS-CoV antiviral); cited from earlier work

DEN1, sequence (Q96LD8 whole entry): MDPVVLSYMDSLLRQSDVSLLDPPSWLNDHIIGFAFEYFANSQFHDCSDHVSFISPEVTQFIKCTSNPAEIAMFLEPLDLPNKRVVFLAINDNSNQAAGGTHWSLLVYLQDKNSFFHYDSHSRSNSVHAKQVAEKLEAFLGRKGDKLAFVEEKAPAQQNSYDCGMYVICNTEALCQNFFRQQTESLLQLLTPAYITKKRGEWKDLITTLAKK
USP7, sequence (Q93009 whole entry): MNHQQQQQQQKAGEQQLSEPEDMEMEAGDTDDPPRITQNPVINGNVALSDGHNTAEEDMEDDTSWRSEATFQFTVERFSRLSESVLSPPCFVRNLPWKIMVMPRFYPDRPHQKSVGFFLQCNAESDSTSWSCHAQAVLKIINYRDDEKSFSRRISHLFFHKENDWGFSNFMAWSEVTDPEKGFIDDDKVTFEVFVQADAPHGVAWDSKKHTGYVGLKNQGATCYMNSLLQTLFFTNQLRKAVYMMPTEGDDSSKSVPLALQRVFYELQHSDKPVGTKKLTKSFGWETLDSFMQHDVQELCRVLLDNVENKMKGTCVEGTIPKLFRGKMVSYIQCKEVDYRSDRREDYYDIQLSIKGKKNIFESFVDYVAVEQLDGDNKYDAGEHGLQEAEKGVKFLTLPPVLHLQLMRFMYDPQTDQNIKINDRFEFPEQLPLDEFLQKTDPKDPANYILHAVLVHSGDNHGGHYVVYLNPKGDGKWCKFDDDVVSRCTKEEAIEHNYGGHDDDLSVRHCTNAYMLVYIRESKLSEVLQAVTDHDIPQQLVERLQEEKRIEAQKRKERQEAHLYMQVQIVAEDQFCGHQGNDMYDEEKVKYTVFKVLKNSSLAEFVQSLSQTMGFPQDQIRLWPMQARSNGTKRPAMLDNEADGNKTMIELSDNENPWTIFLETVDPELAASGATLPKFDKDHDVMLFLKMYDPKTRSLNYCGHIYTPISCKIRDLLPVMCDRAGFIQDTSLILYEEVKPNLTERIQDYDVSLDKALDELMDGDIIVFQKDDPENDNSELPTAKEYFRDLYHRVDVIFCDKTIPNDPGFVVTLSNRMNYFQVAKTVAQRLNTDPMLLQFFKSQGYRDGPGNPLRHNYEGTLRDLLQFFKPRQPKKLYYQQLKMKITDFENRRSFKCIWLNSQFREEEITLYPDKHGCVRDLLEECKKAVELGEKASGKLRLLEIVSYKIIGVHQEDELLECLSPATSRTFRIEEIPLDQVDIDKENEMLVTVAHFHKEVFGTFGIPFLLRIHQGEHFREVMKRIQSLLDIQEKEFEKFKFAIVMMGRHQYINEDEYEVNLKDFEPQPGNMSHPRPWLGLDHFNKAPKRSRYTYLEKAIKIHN
UCHL1, sequence (P09936 whole entry): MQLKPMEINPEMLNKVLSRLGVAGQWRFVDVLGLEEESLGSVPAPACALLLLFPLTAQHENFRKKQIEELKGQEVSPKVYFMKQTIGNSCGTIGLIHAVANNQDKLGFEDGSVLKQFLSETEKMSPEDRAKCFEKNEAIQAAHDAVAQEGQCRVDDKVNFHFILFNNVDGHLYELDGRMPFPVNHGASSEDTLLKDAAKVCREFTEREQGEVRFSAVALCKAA
caspase 3, sequence (P42574 29-175): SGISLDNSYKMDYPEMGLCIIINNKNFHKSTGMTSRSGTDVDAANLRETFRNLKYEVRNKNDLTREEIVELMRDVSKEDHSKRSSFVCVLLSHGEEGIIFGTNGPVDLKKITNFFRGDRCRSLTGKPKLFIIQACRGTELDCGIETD
caspase 3, sequence (P42574 176-277): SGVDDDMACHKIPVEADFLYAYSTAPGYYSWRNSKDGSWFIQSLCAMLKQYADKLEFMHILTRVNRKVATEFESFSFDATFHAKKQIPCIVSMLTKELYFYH
cathepsin K, sequence (P43235 115-329): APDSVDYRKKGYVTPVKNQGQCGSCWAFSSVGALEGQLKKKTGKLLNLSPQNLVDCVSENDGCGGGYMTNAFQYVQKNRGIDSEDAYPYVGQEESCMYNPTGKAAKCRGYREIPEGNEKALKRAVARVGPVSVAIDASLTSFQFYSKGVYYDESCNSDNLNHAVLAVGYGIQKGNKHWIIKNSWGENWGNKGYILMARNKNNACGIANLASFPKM
USP2, sequence (O75604 whole entry): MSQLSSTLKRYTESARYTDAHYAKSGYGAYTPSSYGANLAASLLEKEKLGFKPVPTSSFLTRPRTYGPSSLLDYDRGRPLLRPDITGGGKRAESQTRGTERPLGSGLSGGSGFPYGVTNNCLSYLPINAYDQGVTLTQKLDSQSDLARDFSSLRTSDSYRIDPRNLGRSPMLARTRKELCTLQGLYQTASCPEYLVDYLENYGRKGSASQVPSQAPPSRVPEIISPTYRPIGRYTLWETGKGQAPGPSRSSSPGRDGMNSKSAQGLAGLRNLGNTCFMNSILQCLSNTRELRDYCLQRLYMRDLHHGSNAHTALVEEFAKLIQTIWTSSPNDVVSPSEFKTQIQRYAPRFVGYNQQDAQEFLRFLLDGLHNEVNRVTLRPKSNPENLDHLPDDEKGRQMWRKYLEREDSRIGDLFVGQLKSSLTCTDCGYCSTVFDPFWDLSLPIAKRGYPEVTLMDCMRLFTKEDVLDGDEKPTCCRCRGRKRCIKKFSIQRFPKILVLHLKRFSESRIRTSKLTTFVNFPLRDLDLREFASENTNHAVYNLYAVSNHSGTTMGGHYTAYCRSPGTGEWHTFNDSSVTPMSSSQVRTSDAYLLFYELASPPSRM
USP20, sequence (Q9Y2K6 whole entry): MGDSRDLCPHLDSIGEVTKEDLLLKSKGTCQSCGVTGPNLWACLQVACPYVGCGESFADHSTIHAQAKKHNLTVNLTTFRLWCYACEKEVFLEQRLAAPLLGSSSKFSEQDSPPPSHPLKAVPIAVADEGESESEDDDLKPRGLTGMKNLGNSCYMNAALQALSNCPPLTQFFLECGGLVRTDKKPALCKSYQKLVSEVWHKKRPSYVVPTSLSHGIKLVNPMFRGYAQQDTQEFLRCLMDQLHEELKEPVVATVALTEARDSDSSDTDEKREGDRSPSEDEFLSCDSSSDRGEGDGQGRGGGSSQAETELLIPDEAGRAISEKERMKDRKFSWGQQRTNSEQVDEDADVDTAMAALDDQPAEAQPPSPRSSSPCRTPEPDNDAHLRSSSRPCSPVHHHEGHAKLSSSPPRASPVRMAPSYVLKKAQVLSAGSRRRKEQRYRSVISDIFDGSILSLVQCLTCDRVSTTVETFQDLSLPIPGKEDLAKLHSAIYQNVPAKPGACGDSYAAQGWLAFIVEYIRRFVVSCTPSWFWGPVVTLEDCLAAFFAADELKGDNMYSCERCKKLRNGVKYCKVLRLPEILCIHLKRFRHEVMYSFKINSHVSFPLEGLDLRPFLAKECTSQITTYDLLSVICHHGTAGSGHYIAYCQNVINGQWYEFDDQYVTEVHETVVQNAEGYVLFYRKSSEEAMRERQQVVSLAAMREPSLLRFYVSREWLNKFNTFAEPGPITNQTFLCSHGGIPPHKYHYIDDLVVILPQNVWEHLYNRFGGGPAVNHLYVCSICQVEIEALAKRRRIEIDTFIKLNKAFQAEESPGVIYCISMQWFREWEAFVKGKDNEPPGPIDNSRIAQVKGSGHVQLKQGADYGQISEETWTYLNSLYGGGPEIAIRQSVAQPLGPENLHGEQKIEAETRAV

Compound | IC50 (DEN1) [µM] | IC50 (UCHL1) [µM] | IC50 (caspase 3) [µM] | IC50 (cathepsin K) [µM] | half-life longer than that of 15g [1] | IC50 (USP2) [µM] | IC50 (USP7) [µM] | improvement in antiviral activity compared to 15g [2] [fold] | IC50 (USP20) [µM] | EC50 [3] [µM]
CC(=O)Nc1cccc(CNC(=O)C2CCN([C@H](C)c3cccc4ccccc34)CC2)c1 [3e, (R)-N-(3-Acetamidobenzyl)-1-(1-(naphthalen-1-yl)ethyl)piperidine-4-carboxamide] | > 100 | > 100 | > 100 | > 100 | 4-5 fold | – | – | – | – | –
C[C@H](c1cccc2ccccc12)N1CCC(C(=O)NCc2ccc(F)cc2)CC1 [3j, (R)-N-(4-Fluorobenzyl)-1-(1-(naphthalen-1-yl)ethyl)piperidine-4-carboxamide] | > 100 | > 100 | > 100 | > 100 | – | > 100 | > 100 | – | – | –
C[C@H](c1cccc2ccccc12)N1CCC(C(=O)NCc2cccc(F)c2)CC1 [3k, (R)-N-(3-Fluorobenzyl)-1-(1-(naphthalen-1-yl)ethyl)piperidine-4-carboxamide] | > 100 | > 100 | > 100 | > 100 | – | > 100 | > 100 | 2 | – | –
COc1cc(CNC(=O)C2CCN([C@H](C)c3cccc4ccccc34)CC2)ccn1 [5c, (R)-N-((2-Methoxypyridin-4-yl)methyl)-1-(1-(naphthalen-1-yl)ethyl)piperidine-4-carboxamide] | – | – | – | – | 4-5 fold | – | – | – | – | –
C[C@H](c1cccc2ccccc12)N1CCC(C(=O)NCc2ccc3c(c2)OCO3)CC1 [15g, reference compound] | > 100 | > 100 | > 100 | > 100 | – | > 100 | > 100 | – | > 100 | 9.1
